Values quoted from earlier work in patent US8097593B1, “Lipid A and other carbohydrate ligand analogs” (Oncothyreon Inc., priority 2002, dated 2012).

Key:
[1] = not given; remark: listed apart in the source

| Compound | experimental log P | immunostimulating activities, in words ([1]; compared with diphosphoryl Lipid-A (and endotoxin itself)) | times less potent in eliciting toxic and pyrogenic responses ([1]; on a molar basis) [times] |
| --- | --- | --- | --- |
| CC(C)(C)C [CC(C)(C)C, 2,2-dimethylpropane] | 3.11 |  |  |
| monophosphoryl Lipid-A |  | comparable | 1000 |
